# How the values were obtained:
# Assay type in all cases: functional, cell-based
# HL-60 = test: Cytotoxicity against human HL60 cells after 48 hrs by MTT assay; conditions: HL-60, 48 h
# SMMC-7721 = test: Cytotoxicity against human SMMC7721 cells after 48 hrs by MTT assay; conditions: SMMC-7721, 48 h
# A549 = test: Cytotoxicity against human A549 cells after 48 hrs by MTT assay; conditions: A549, 48 h
# SW480 = test: Cytotoxicity against human SW480 cells after 48 hrs by MTT assay; conditions: SW480, 48 h
# MCF7 = test: Cytotoxicity against human MCF7 cells after 48 hrs by MTT assay; conditions: MCF7, 48 h
SMILES,IC50 (HL-60; read-out: IC50) [µM],IC50 (HL-60; read-out: pIC50 (converted)) [µM],IC50 (SMMC-7721; read-out: IC50) [µM],IC50 (SMMC-7721; read-out: pIC50 (converted)) [µM],IC50 (A549; read-out: IC50) [µM],IC50 (A549; read-out: pIC50 (converted)) [µM],IC50 (SW480; read-out: IC50) [µM],IC50 (SW480; read-out: pIC50 (converted)) [µM],IC50 (MCF7; read-out: IC50) [µM],IC50 (MCF7; read-out: pIC50 (converted)) [µM]
C=C1[C@@H]2CC[C@H]3[C@]45CO[C@H](CC4=O)C(C)(C)C5=C(O)C(=O)[C@]3(C2)[C@@H]1O (relative stereo),9.9,9.9,21.5,20,24.9,25.1,15.4,15.8,12.9,12.6
C=C1C(=O)[C@]23C[C@H]1CC[C@H]2[C@@]12CO[C@]3(O)[C@@H](O)[C@@H]1C(C)(C)C=CC2=O [ERIOCALYXIN B],0.3,0.316,0.8,0.794,3.1,3.16,0.5,0.501,0.6,0.631
C=C(C=O)[C@@H]1CC[C@@H]2[C@@H](C1)C(=O)[C@@H](O)[C@@H]1C(C)(C)[C@H]3CC(=O)[C@@]21CO3 [LAXIFLORIN P],3.8,3.98,5.6,5.01,11.7,12.6,3.1,3.16,3.2,3.16
CC1(C)[C@H]2[C@H](O)C(=O)[C@@H]3C[C@H](C(=O)O)CC[C@H]3[C@@]23CO[C@@H]1CC3=O [LAXIFLORIN Q],> 40,> 39.8,> 40,> 39.8,> 40,> 39.8,> 40,> 39.8,> 40,> 39.8
C[C@H]1C[C@](O)([C@@H]2CC[C@@H]3[C@@H](C2)C(=O)[C@@H](O)[C@@H]2C(C)(C)[C@H]4CC(=O)[C@@]32CO4)C(=O)O1 [LAXIFLOROLIDE A],> 40,> 39.8,> 40,> 39.8,> 40,> 39.8,> 40,> 39.8,> 40,> 39.8
C[C@@H]1C[C@](O)([C@@H]2CC[C@@H]3[C@@H](C2)C(=O)[C@@H](O)[C@@H]2C(C)(C)[C@H]4CC(=O)[C@@]32CO4)C(=O)O1 [LAXIFLOROLIDE B],> 40,> 39.8,> 40,> 39.8,> 40,> 39.8,> 40,> 39.8,> 40,> 39.8
C=C1[C@@H]2CC[C@H]3[C@@]45CO[C@](O)([C@@H](O)[C@@H]4C(C)(C)C=CC5=O)[C@]3(C2)[C@@H]1O [MAOECRYSTAL C],18.9,20,> 40,> 39.8,> 40,> 39.8,14.5,15.8,14.4,15.8
C=C1C(=O)[C@]23C[C@H]1CC[C@H]2[C@]12CO[C@H](CC1=O)C(C)(C)C2=C(O)C3=O [MAOECRYSTAL P],1,1,2.8,2.51,6.3,6.31,2.1,2,1.8,2

# From ChEMBL document CHEMBL2086258, “Laxiflorolides A and B, epimeric bishomoditerpene lactones from Isodon eriocalyx” (J Nat Prod, 2012)
